Measured values reported in the NIST ThermoML archive (doi:10.1021/je300775u).
Numbers after ± are expanded uncertainties.

Experiment: xn = mol fraction of the nth substance listed
Conditions: 101 kPa, Liquid; for speed of sound: Pulse-echo method; for mass density: Vibrating tube method

ClC(Cl)(Cl)Br [bromotrichloromethane] + CCCCCCC
Conditions	mass density, 293.15 K [kg/m3]	mass density, 298.15 K [kg/m3]	mass density, 303.15 K [kg/m3]	mass density, 308.15 K [kg/m3]	mass density, 313.15 K [kg/m3]	speed of sound, 293.15 K [m/s]	speed of sound, 298.15 K [m/s]	speed of sound, 303.15 K [m/s]	speed of sound, 308.15 K [m/s]	speed of sound, 313.15 K [m/s]
x1 = 0.0527	731.54 ± 0.25	727.03 ± 0.25	722.5 ± 0.25	717.94 ± 0.25	713.35 ± 0.25	1126.6 ± 0.9	1105.8 ± 0.9	1085.1 ± 0.9	1064.5 ± 0.9	1044 ± 0.9
x1 = 0.1116	786.88 ± 0.24	782.07 ± 0.24	777.25 ± 0.24	772.39 ± 0.24	767.5 ± 0.24	1100.3 ± 0.9	1080.2 ± 0.9	1060.4 ± 0.9	1040.5 ± 0.9	1020.7 ± 0.9
x1 = 0.152	826.09 ± 0.24	821.09 ± 0.24	816.04 ± 0.24	810.96 ± 0.24	805.84 ± 0.24	1083.8 ± 0.9	1064.4 ± 0.9	1044.9 ± 0.9	1025.3 ± 0.9	1005.8 ± 0.9
x1 = 0.2038	878.08 ± 0.24	872.78 ± 0.24	867.43 ± 0.24	862.07 ± 0.24	856.67 ± 0.24	1064.1 ± 0.9	1045.2 ± 0.9	1026 ± 0.9	1007 ± 0.9	988.3 ± 0.9
x1 = 0.2512	927.29 ± 0.25	921.75 ± 0.25	916.16 ± 0.25	910.53 ± 0.25	904.88 ± 0.25	1047.4 ± 1	1028.9 ± 1	1010.4 ± 0.9	992 ± 0.9	973.6 ± 0.9
x1 = 0.2988	978.53 ± 0.25	972.69 ± 0.25	966.84 ± 0.25	960.93 ± 0.25	955.01 ± 0.25	1031.9 ± 1	1013.7 ± 1	995.8 ± 1	977.7 ± 1	959.8 ± 1
x1 = 0.3556	1041.97 ± 0.27	1035.81 ± 0.27	1029.61 ± 0.26	1023.38 ± 0.26	1017.12 ± 0.26	1015 ± 1	997.3 ± 1	979.7 ± 1	962.2 ± 1	944.8 ± 1
x1 = 0.4027	1096.65 ± 0.3	1090.21 ± 0.3	1083.75 ± 0.29	1077.23 ± 0.29	1070.68 ± 0.29	1001.9 ± 1	984.7 ± 1	967.5 ± 1	950.4 ± 1	933.3 ± 1
x1 = 0.4603	1166.3 ± 0.34	1159.5 ± 0.34	1152.66 ± 0.33	1145.8 ± 0.33	1138.9 ± 0.33	987.5 ± 1	970.6 ± 1	953.9 ± 1	937.2 ± 1	920.7 ± 1
x1 = 0.4989	1214.82 ± 0.38	1207.8 ± 0.37	1200.71 ± 0.37	1193.57 ± 0.37	1186.41 ± 0.36	978.4 ± 1	962 ± 1	945.5 ± 1	929.2 ± 1	912.9 ± 1
x1 = 0.5537	1286.16 ± 0.43	1278.76 ± 0.43	1271.34 ± 0.42	1263.88 ± 0.42	1256.37 ± 0.41	966.7 ± 1	950.6 ± 1	934.7 ± 1	918.8 ± 1	902.9 ± 1
x1 = 0.5961	1343.68 ± 0.48	1336 ± 0.48	1328.29 ± 0.47	1320.53 ± 0.46	1312.74 ± 0.46	958.4 ± 1.1	942.8 ± 1.1	927.1 ± 1.1	911.3 ± 1.1	895.9 ± 1
x1 = 0.6562	1428.79 ± 0.56	1420.68 ± 0.55	1412.54 ± 0.54	1404.37 ± 0.54	1396.16 ± 0.53	948 ± 1.1	932.8 ± 1.1	917.4 ± 1.1	902.2 ± 1.1	887.1 ± 1.1
x1 = 0.7088	1506.86 ± 0.63	1498.38 ± 0.63	1489.86 ± 0.62	1481.3 ± 0.61	1472.71 ± 0.61	940.1 ± 1.1	925.2 ± 1.1	910.3 ± 1.1	895.4 ± 1.1	880.6 ± 1.1
x1 = 0.7486	1568.29 ± 0.7	1559.53 ± 0.69	1550.71 ± 0.68	1541.85 ± 0.68	1532.96 ± 0.67	934.8 ± 1.1	920 ± 1.1	905.3 ± 1.1	890.7 ± 1.1	876.2 ± 1.1
x1 = 0.8001	1651.09 ± 0.79	1641.91 ± 0.78	1632.7 ± 0.78	1623.44 ± 0.77	1614.16 ± 0.76	929 ± 1.1	914.5 ± 1.1	900.1 ± 1.1	885.8 ± 1.1	871.5 ± 1.1
x1 = 0.8456	1727.53 ± 0.89	1717.98 ± 0.88	1708.38 ± 0.87	1698.77 ± 0.86	1689.12 ± 0.85	924.6 ± 1.2	910.4 ± 1.1	896.2 ± 1.1	882.2 ± 1.1	868.2 ± 1.1
x1 = 0.899	1821.57 ± 1	1811.56 ± 1	1801.52 ± 0.99	1791.47 ± 0.98	1781.35 ± 0.97	920.6 ± 1.2	906.7 ± 1.2	892.8 ± 1.2	879 ± 1.2	865.3 ± 1.2
x1 = 0.9521	1919.55 ± 1.1	1909.09 ± 1.1	1898.58 ± 1.1	1888.06 ± 1.1	1877.49 ± 1.1	918 ± 1.2	904.4 ± 1.2	890.7 ± 1.2	877.2 ± 1.2	863.7 ± 1.2
x1 = 1	2013.06 ± 1.2	2002.14 ± 1.2	1991.2 ± 1.2	1980.24 ± 1.2	1969.25 ± 1.2	917.1 ± 1.2	903.6 ± 1.2	890.2 ± 1.2	876.8 ± 1.2	863.6 ± 1.2
